Molecules are shown by their SMILES. ≈ marks a conversion by molar mass, not a printed value. Where “and” joins values, the source holds several entries; their conditions need not be identical. Equal entries are not always repeated. Where two headings read alike, the source gives them in different places.

Assay [1] concerns prostate tumor cells (PC-3).
Assay [2] relates to prostate tumor cells (PC-3). The experiment in a line: cells. Particulars: Homo sapiens, 24 h, read-out: IC50 (concentration listed as 100 % IC50), PC-3.
The mark [3] stands for this setting: concurrent 24 h exposure, % IC50 0/100: roscovitine 0, mitox. 12.50 ng/ml.
Setting [4] is: mitoxantrone 24 h then roscovitine 24 h, % IC50 0/100: roscovitine 0, mitox. 15.00 ng/ml.
The mark [5] stands for this setting: roscovitine 24 h then mitoxantrone 24 h, % IC50 0/100: roscovitine 0, mitox. 10.00 ng/ml.
Setting [6] is: mitoxantrone 24 h then roscovitine 24 h, % IC50 100/0: roscovitine 30.00 ug/ml, mitox. 0.

Turning to `O=C1c2c(O)ccc(O)c2C(=O)c2c(NCCNCCO)ccc(NCCNCCO)c21` [Mitoxantrone, 1,4-dihydroxy-5,8-bis[{2-[(2-hydroxyethyl)amino]ethyl}amino]-9,10-anthracendione], the “% Abs” value in assay [1] (setting [3]) was 51.8% and 54.7%; in assay [1] (setting [4]), 47.0%; in assay [1] (setting [5]) it was 62.7%. The “% Response” value was 45.3% in assay [1] (setting [3]), 53.0% in assay [1] (setting [4]) and 37.3% in assay [1] (setting [5]). The “Mean (absorbance)” value was 0.418 in assay [1] (setting [3]), 0.367 in assay [1] (setting [4]) and 0.501 in assay [1] (setting [5]). The “Well 1-3 (absorbance)” value in assay [1] (setting [3]) is 0.415 and 0.424 and 0.414; in assay [1] (setting [4]) it was 0.373 and 0.371 and 0.358; in assay [1] (setting [5]) it was 0.532 and 0.487 and 0.483. For the same molecule, the IC50 in assay [2] (Table 3, roscovitine 24 h then mitoxantrone 24 h) was found to be 0.01 µg/mL (≈ 0.0225 µM); in assay [2] (Table 5, mitoxantrone 24 h then roscovitine 24 h), 0.015 µg/mL (≈ 0.0337 µM); in assay [2] (Table 7, concurrent 24 h exposure) it was 0.0125 µg/mL (≈ 0.0281 µM).

Take `CC[C@H](CO)Nc1nc(NCc2ccccc2)c2ncn(C(C)C)c2n1` [Roscovitine, 6-benzylamino-2-[(R)-1-ethyl-2-hydroxyethylamino]-9-isopropylpurine]: in assay [1] (setting [6]), the “% Abs” value is on record as 21.9%; the “% Response” value turned out to be 78.1%; the “Mean (absorbance)” value is reported as 0.171; the “Well 1-3 (absorbance)” value was 0.165 and 0.162 and 0.186.

Source of the values: patent US20050261260A1, “Combination of a CDK inhibitor and mitoxantrone” (Cyclacel Limited, priority 2002, published 2005).
